Laboratory results as given in US20090209581A1, “NITROXIDES FOR USE IN TREATING OR PREVENTING IMMUNOLOGICAL DISEASES” (priority 2005, published 2009).

Experiments:
[1] = tested on: glucocorticoid-induced leucine zipper (GILZ); experiment: Gene expression in cardiac tissue of mice after Tempol administration, chip-based microarray; format: in vivo
Experimental: To assess the effects of Tempol on gene expression, Tempol was administered to experimental mice at a dose of 5 mg/g of food from 14 months to 31 months after birth. Mice receiving the same food without the addition of Tempol were used as a negative control. At the age of 31 months, the experimental animals were sacrificed and the hearts were surgically removed. The expression of a broad spectrum of genes in the cardiac tissue was assessed using chip-based microarray technology. Such chips are well known in the art and are widely used to assess gene expression.

[2] = tested on: collagen type I alpha 1 (COL1A1); experiment: Gene expression in adipose tissue of mice after Tempol administration, Affymetrix MOE430A 2.0 array; format: in vivo
Experimental: (§1) In a further gene expression study, Tempol was administered to experimental mice at a dose of 5 g/kg of diet from 12 months through 15 months. Mice receiving the same diet without the addition of Tempol were used as a negative control. At the age of 15 months, the adipose tissue of the experimental animals was obtained. The expression of a broad spectrum of genes in the adipose tissue was assessed using chip-based microarray technology. Specifically, in this case an Affymetrix MOE430A 2.0 array, containing 12,960 genes, was employed. Such chips are well known in the art and are widely used to assess gene expression.

[3] = tested on: complement component 6 (C6); experiment: as above; format: in vivo
Experimental: as §1

[4] = tested on: glucocorticoid-induced leucine zipper; experiment: Protein level in circulating monocytes of patient after Tempol treatment; format: in vivo, human
Experimental: (§2) A 70-kilogram patient diagnosed with an autoimmune disease is administered a dose of 1500 mg of Tempol per day for 180 days. This may be administered in a single dose, or may be administered as a number of smaller doses over a 24-hour period: for example, three 500-mg doses at eight-hour intervals. Following treatment, the protein level of glucocorticoid-induced leucine zipper in circulating monocytes is increased, and the protein levels of complement component 6 in plasma and of collagen type 1 A1 in fibroblasts is reduced.
as §2, with “patient” for “patient diagnosed with an autoimmune disease”, “days prior to receiving an organ transplant.” for “days.”

complement component 6 = experiment: Protein level in plasma of patient after Tempol treatment; format: in vivo, human
Experimental: as §2
as §2, with “patient” for “patient diagnosed with an autoimmune disease”, “days prior to receiving an organ transplant.” for “days.”

collagen type 1 A1 = experiment: Protein level in fibroblasts of patient after Tempol treatment; format: in vivo, human
Experimental: as §2
as §2, with “patient” for “patient diagnosed with an autoimmune disease”, “days prior to receiving an organ transplant.” for “days.”

[5] = 5 g/kg of diet from 12 through 15 months, microarray signal
[6] = Example 1: patient with autoimmune disease, 1500 mg per day for 180 days
[7] = Example 2: 1500 mg per day for 180 days prior to organ transplant

Structure (SMILES): CC1(C)CC(O)CC(C)(C)N1[O] [Tempol, 4-hydroxy-2,2,6,6-tetramethylpiperidine-1-oxyl]
- GILZ Fold change ([1]; TEMPOL-treated vs control mice, upregulated gene): 2.3
- GILZ (AA097711) expression, TEMPOL-treated mice tp51 ([1]; mouse tp51, 5 mg/g of food from 14 to 31 months, microarray signal): 83
- GILZ (AA097711) expression, TEMPOL-treated mice tp52 ([1]; mouse tp52, 5 mg/g of food from 14 to 31 months, microarray signal): 33
- GILZ (AA097711) expression, TEMPOL-treated mice tp53 ([1]; mouse tp53, 5 mg/g of food from 14 to 31 months, microarray signal): 4
- COL1A1 expression, Mean (Tempol-treated mice) [2, 5]: 1688
- COL1A1 Fold change ([2]; Tempol-treated vs control mice): −1.28
- C6 expression, Mean (Tempol-treated mice) [3, 5]: 337
- C6 Fold change ([3]; Tempol-treated vs control mice): −1.85
- C6 expression decrease ([3]; Tempol-treated vs control mice): decrease in expression
- protein level of glucocorticoid-induced leucine zipper in circulating monocytes [4, 6]: increased
- protein level of glucocorticoid-induced leucine zipper in circulating monocytes [4, 7]: increased
- protein level of complement component 6 in plasma (complement component 6; [6]): reduced
- protein level of complement component 6 in plasma (complement component 6; [7]): reduced
- protein level of collagen type 1 A1 in fibroblasts (collagen type 1 A1; [6]): reduced
- protein level of collagen type 1 A1 in fibroblasts (collagen type 1 A1; [7]): reduced
